Data from the Deep4Chem optical property database.
Blank lines part the entries; values can stand above or below the compound they belong to.

Experiment: solvent given as SMILES

Compound: CN(C)c1ccc(/C=C/c2ccc(C#N)cc2)cc1
emission maximum (in C1CCOC1): 499 nm
emission maximum (in CC#N): 530 nm
emission maximum (in CCCC#N): 522 nm
emission maximum (in CCCCCC): 415 nm
emission maximum (in CCCCOCCCC): 453 nm
emission maximum (in CCO): 524 nm
emission maximum (in CCOCC): 475 nm

Compound: CCCCCCCCOC(=O)c1ccc(-c2cc3ccc4cc(-c5ccc(C(=O)OCCCCCCCC)cc5)cc5ccc(c2)c3c45)cc1
emission maximum (in Cc1ccccc1): 421 nm

Compound: CC1=[N+]2C(=C(c3c4ccccc4c(-c4ccccc4)c4ccccc34)c3ccc(C)n3[B-]2(F)F)C=C1
emission maximum (in CC#N): 536 nm
emission maximum (in CCCCCC): 527 nm
emission maximum (in CCO): 528 nm
emission maximum (in CN(C)C=O): 533 nm
emission maximum (in Cc1ccccc1): 532 nm
emission maximum (in ClCCl): 533 nm

Compound: [O-][n+]1c(-c2ccc(Br)cc2)cc(N2CCOCC2)nc1/C=C/c1ccccc1
emission maximum (in ClCCl): 548 nm

Compound: CC1(C)c2ccccc2N(c2ccc(-c3ccc(C#N)cn3)cc2)c2ccccc21
emission maximum (in Cc1ccccc1): 504 nm
emission maximum (in N#Cc1ccc2c(c1)c1ccccc1n2-c1cccc(-n2c3ccccc3c3ccccc32)c1): 495 nm

Compound: c1ccc2c(C3=C(c4cccc5ccccc45)c4cccc5c4c(cc4nc6ccccc6nc45)O3)cccc2c1
emission maximum (in ClCCl): 538 nm

Compound: CCCCCCCCCCCCSc1cc2c3c(ccc4c5c(SCCCCCCCCCCCC)cc6c7c(ccc(c1c34)c75)C(=O)N(C1CCCCC1)C6=O)C(=O)N(C1CCCCC1)C2=O
emission maximum (in ClC(Cl)Cl): 655 nm

Compound: Cc1ccc(C)c2nc3c(=O)[nH]c(=O)[nH]c3nc12
emission maximum (in CC#N): 491 nm

Compound: Nc1ccc2c(c1)NC(=O)CC(=O)N2
emission maximum (in CS(C)=O): 385 nm

Compound: COc1ccc(N(c2ccc(OC)cc2)c2ccc3c(c2)C2(c4cc(N(c5ccc(OC)cc5)c5ccc(OC)cc5)ccc4C=C3)c3ccccc3-c3ccccc32)cc1
emission maximum (in ClCCl): 483 nm

Compound: CCn1c2ccccc2c2cc(/C=C/c3cc(/C=C/c4ccc5c(c4)c4ccccc4n5CC)ncn3)ccc21
emission maximum (in C1CCOC1): 463 nm
emission maximum (in CCOC(C)=O): 460 nm
emission maximum (in CN(C)C=O): 500 nm
emission maximum (in Cc1ccccc1): 440 nm
emission maximum (in ClCCl): 492 nm

Compound: CCN(CC)c1ccc(-c2ccc(-c3nc4ccccc4c(=O)[nH]3)s2)cc1
emission maximum (in CC#N): 541 nm
emission maximum (in Cc1ccccc1): 490 nm

Compound: COc1ccc(N(c2ccc(OC)cc2)c2ccc3c4cccc5c(N(c6ccc(OC)cc6)c6ccc(OC)cc6)ccc(c6cccc2c63)c54)cc1
emission maximum (in C1CCCCC1): 551 nm
emission maximum (in C1CCOC1): 583 nm
emission maximum (in CC#N): 598 nm
emission maximum (in Cc1ccccc1): 574 nm
emission maximum (in ClCCl): 591 nm

Compound: CC(C)(C)c1cc(-n2c(-c3ccc(C(=C(c4ccccc4)c4ccccc4)c4ccccc4)cc3)cc3c2cc(-c2ccc(C(=C(c4ccccc4)c4ccccc4)c4ccccc4)cc2)n3-c2cc(C(C)(C)C)cc(C(C)(C)C)c2)cc(C(C)(C)C)c1
emission maximum (in ClCCl): 586 nm

Compound: C[Si]1(C)C(c2ccccc2)=Cc2ccccc21
emission maximum (in ClCCl): 390 nm

Compound: c1cc2c3c(cccc3c1)C(N1CCOCCOCCOCCOCC1)=N2
emission maximum (in CC#N): 590 nm

Compound: CCn1c(-c2ccc(-c3cccc4ccccc34)cc2)c(-c2ccc3ccccc3c2)c(-c2ccc3ccccc3c2)c1-c1ccc(-c2cccc3ccccc23)cc1
emission maximum (in CCOC(C)=O): 429 nm

Compound: C(S/C=C/c1ccc(-c2ccc(/C=C/SC=C3CCCCCC3)cc2)cc1)=C1CCCCCC1
emission maximum (in ClCCl): 434 nm

Compound: c1ccc2c(-n3cnc4ccccc43)cccc2c1
emission maximum (in C1CCCCC1): 358 nm
emission maximum (in C1CCOC1): 359 nm
emission maximum (in CC#N): 362 nm
emission maximum (in CCO): 360 nm
emission maximum (in CCOC(C)=O): 361 nm
emission maximum (in CCOCC): 361 nm
emission maximum (in CO): 360 nm
emission maximum (in Cc1ccccc1): 359 nm
emission maximum (in ClC(Cl)Cl): 362 nm

Compound: COc1ccc(-c2n[n+]3c(s2)N=C(c2ccccc2)O[B-]3(F)F)cc1
emission maximum (in Cc1ccccc1): 436 nm

Compound: COc1cc(/C=C/c2cc(OC)c(-c3nc(-c4ccccc4)c(-c4ccccc4)[nH]3)cc2OC)c(OC)cc1/C=C/c1cc(OC)c(-c2nc(-c3ccccc3)c(-c3ccccc3)[nH]2)cc1OC
emission maximum (in C1CCOC1): 510 nm
emission maximum (in CC#N): 515 nm
emission maximum (in CN(C)C=O): 512 nm
emission maximum (in Cc1ccccc1): 502 nm

Compound: Cc1cc(C)c(B(c2ccc(N3c4ccccc4C(C)(C)c4ccccc43)cc2)c2c(C)cc(C)cc2C)c(C)c1
emission maximum (in C1CCCCC1): 442 nm
emission maximum (in C1CCOC1): 530 nm
emission maximum (in CN(C)C=O): 578.72 nm
emission maximum (in Cc1ccccc1): 484 nm
emission maximum (in ClCCl): 540.77 nm

Compound: CC(C)(C)c1ccc(C2=c3sc4ccccc4c3=[N+]3C2=Nc2c(-c4ccc(C(C)(C)C)cc4)c4sc5ccccc5c4n2[B-]3(F)F)cc1
emission maximum (in C1CCOC1): 800 nm
emission maximum (in Cc1ccccc1): 796 nm
emission maximum (in ClC(Cl)Cl): 794 nm

Compound: CC1=CC2=Nc3nc(C)[n+](C)cc3CN2C=C1
emission maximum (in CC#N): 432 nm
emission maximum (in CCO): 433 nm
emission maximum (in O): 426 nm

Compound: FC(F)(F)c1ccc(C2=CC3=c4cc(-c5ccc(C(F)(F)F)cc5)c5nc(C(F)(F)C(F)(F)C(F)(F)F)nc6c(-c7ccc(C(F)(F)F)cc7)cc(c4c65)C4=CC(c5ccc(C(F)(F)F)cc5)=C5N=C(C(F)(F)C(F)(F)C(F)(F)F)N=C2C5C43)cc1 (centres undefined)
emission maximum (in C1CCOC1): 512 nm

Compound: O=C1c2ccccc2NCN1Cc1ccccc1
emission maximum (in CC#N): 416 nm
emission maximum (in CCCCCCCCCCCCCCCC): 381 nm
emission maximum (in CO): 443 nm
emission maximum (in ClC(Cl)Cl): 398 nm
emission maximum (in c1ccccc1): 395 nm

Compound: Cc1c2oc3c(C)c(N)cc(C(=O)NC4OC(=O)C(C(C)C)N(C)C(=O)CN(C)C(=O)C5CCCN5C(=O)C(C(C)C)NC4=O)c3nc-2c(C(=O)NC2OC(=O)C(C(C)C)N(C)C(=O)CN(C)C(=O)C3CCCN3C(=O)C(C(C)C)NC2=O)c(N)c1=O (centres undefined)
emission maximum (in C1CCOC1): 608.36 nm
emission maximum (in CC#N): 634.41 nm
emission maximum (in CC(=O)O): 638.86 nm
emission maximum (in CC(C)=O): 609.72 nm
emission maximum (in CCCCO): 669.51 nm
emission maximum (in CCCCOC(C)=O): 624.05 nm
emission maximum (in CCCO): 658.62 nm
emission maximum (in CCN(CC)CC): 597.77 nm
emission maximum (in CCO): 669 nm
emission maximum (in CCOC(C)=O): 598.75 nm
emission maximum (in CN(C)C=O): 640.78 nm
emission maximum (in CO): 673.84 nm
emission maximum (in CS(C)=O): 637.01 nm
emission maximum (in Cc1ccccc1): 613.07 nm
emission maximum (in ClC(Cl)Cl): 620.11 nm
emission maximum (in ClCCCl): 609.65 nm
emission maximum (in O): 674.17 nm
emission maximum (in O=[N+]([O-])c1ccccc1): 623.24 nm
emission maximum (in c1ccccc1): 621.25 nm
emission maximum (in c1ccncc1): 648.07 nm

Compound: COc1ccc(/C=C/C2=CC(/C=C/c3ccc(OC)cc3)=[O+][B-](OC(C)=O)(OC(C)=O)O2)cc1
emission maximum (in C1CCOC1): 518 nm
emission maximum (in CC#N): 541 nm
emission maximum (in CC(C)=O): 531 nm
emission maximum (in CS(C)=O): 548 nm
emission maximum (in Cc1ccccc1): 510 nm
emission maximum (in ClC(Cl)Cl): 529 nm
emission maximum (in ClCCl): 535 nm

Compound: CC(C)(C(=O)c1ccc(N2c3ccccc3Oc3ccccc32)cc1)C(=O)c1ccc(N2c3ccccc3Oc3ccccc32)cc1
emission maximum (in Cc1ccccc1): 562 nm
emission maximum (in c1ccc2c(c1)c1ccccc1n2-c1ccc(-c2ccc(-n3c4ccccc4c4ccccc43)cc2)cc1): 520.81 nm

Next, values leading:

emission maximum (in C1CCOC1): 412 nm
emission maximum (in CO): 426 nm
Compound: CCOC(=O)C1=CN(c2ccccc2)C=C(C(=O)OCC)C1c1ccccc1

emission maximum (in C1CCCCC1): 427 nm
emission maximum (in CC#N): 553 nm
emission maximum (in CC(C)O): 534 nm
emission maximum (in CO): 565 nm
emission maximum (in CS(C)=O): 564 nm
emission maximum (in ClC(Cl)Cl): 494 nm
emission maximum (in c1ccccc1): 475 nm
Compound: CN(C)c1ccc2nc(-c3ccc(C(=O)Nc4ccccc4)cc3)sc2c1

emission maximum (in CCO): 499 nm
emission maximum (in ClCCl): 503 nm
emission maximum (in O): 609 nm
Compound: N#CC(C#N)=Cc1ccc(-c2ccc(-c3nc4ccccc4s3)c(O)c2)s1

emission maximum (in ClCCl): 425 nm
Compound: CCOC(=O)c1c(-c2cc3ccc(OCC=C(C)C)cc3oc2=O)nn(-c2cccc(C)c2)c1C(=O)OCC

emission maximum (in CCO): 441 nm
Compound: CN(C)c1cc2c(cc1F)c(=O)c1cc(F)c(N(C)C)cc1n2C

emission maximum (in CO): 807 nm
Compound: CC1(C)C(/C=C/C2=C(Cl)C(=C/C=C3/N(Cc4ccc([N+](=O)[O-])cc4)c4ccccc4C3(C)C)/CCC2)=[N+](Cc2ccc([N+](=O)[O-])cc2)c2ccccc21

emission maximum (in CC#N): 687 nm
emission maximum (in CO): 681 nm
emission maximum (in ClCCl): 676 nm
emission maximum (in O): 688 nm
Compound: CCOC(=O)CC[N+]1=c2cc3c(cc2CCC1)=Cc1c(c2cc4c5c(c2oc1=O)CCCN5CCC4)O3

emission maximum (in ClCCl): 506 nm
Compound: CC(=O)c1ccc(-c2cccc3ncc(-c4ccccc4)n23)cc1

emission maximum (in CS(C)=O): 510 nm
Compound: CCOC(=O)C1=C(N)n2c(=O)c3ccccc3c(=O)n2C1c1ccc([N+](=O)[O-])cc1 (centres undefined)

emission maximum (in CC#N): 518 nm
emission maximum (in ClCCl): 469 nm
Compound: Cc1cc(-c2ccccc2C)cc(C)[o+]1

emission maximum (in ClC(Cl)Cl): 702 nm
Compound: CCOC(=O)/C(C)=C/C1=C(c2ccc(C)cc2)C2=Nc3c(-c4ccc(C)cc4)c(Br)c(-c4ccc(C)cc4)n3[B-](F)(F)[N+]2=C1c1ccc(C)cc1

emission maximum (in O): 487 nm
Compound: COc1cc(N(CC(=O)[O-])CC(=O)[O-])c2ncccc2c1

emission maximum (in CC#N): 593 nm
Compound: COC(=O)/C=C/c1sc(-c2ccc(N(C)C)cc2)c(-c2cccnc2)c1N

emission maximum (in C1CCOC1): 432 nm
Compound: COc1ccc(-n2c(-c3ccc(-c4cncc5ccccc45)cc3)nc(-c3ccccc3)c2-c2ccccc2)cc1

emission maximum (in ClCCl): 457 nm
Compound: CCOC(=O)c1c(-c2cc3ccccc3oc2=O)nn(-c2ccc(OC)cc2)c1C(=O)OCC

emission maximum (in C1CCOC1): 415 nm
Compound: c1ccc(-c2cnc3nn4ccccc4c3c2)cc1

emission maximum (in ClC(Cl)Cl): 611 nm
Compound: CCCCCCCCn1c(=O)c2cc3cc4cc5c(=O)n(CCCCCCCC)c(=O)c5cc4c(C#Cc4ccc(N(c5ccccc5)c5ccccc5)cc4)c3cc2c1=O

emission maximum (in ClCCl): 415 nm
Compound: CC(C)(C)NC(=O)c1cccc2ccc3c4ccc(Cl)cc4c4cc(Cl)ccc4c3c12

emission maximum (in C1CCOC1): 361.1 nm
Compound: CCCCCCCCCn1c(-c2cc(-c3nc4ccccc4n3CCCCCCCCC)cc(-c3nc4ccccc4n3CCCCCCCCC)c2)nc2ccccc21

emission maximum (in CCO): 425 nm
emission maximum (in ClCCl): 713 nm
emission maximum (in O): 716 nm
Compound: CC[N+](CC)=c1ccc2c(C(F)(F)F)c3c(oc-2c1)-c1ccc(N(C)C)cc1CC3
